Measured values: ChEMBL document CHEMBL1201861, “Genomics of Drug Sensitity in Cancer screening data, Wellcome Trust Sanger Institute”
pIC50: −log10 of the molar value.

Assays:
Experiment in all cases: cells
DEL = assay type: functional, cell-based, Homo sapiens; details: Homo sapiens, DEL;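 also: growth inhibition of the human DEL cell line, read out with a cell viability assay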
DJM-1 = assay type: functional, cell-based, Homo sapiens; details: Homo sapiens, DJM-1;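 also: growth inhibition of human DJM-1 cells, read out by a cell viability assay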
ES1 = assay type: functional, cell-based, Homo sapiens; details: Homo sapiens, ES1;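 also: growth inhibition of ES1 cells, read out with a cell viability assay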
ES4 = assay type: functional, cell-based, Homo sapiens; details: Homo sapiens, ES4;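 also: growth inhibition of human ES4 cells, read out by a cell viability assay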
EOL1 = assay type: functional, cell-based, Homo sapiens; details: Homo sapiens, EOL1;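 also: growth inhibition of EoL-1 cells, read out by a cell viability assay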
GAK = assay type: functional, cell-based, Homo sapiens; details: Homo sapiens, GAK;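 also: cell growth inhibition read out by a cell viability assay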
GI-1 = assay type: functional, cell-based, Homo sapiens; details: Homo sapiens, GI-1;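 also: growth inhibition of human GI-1 cells, measured with a cell viability readout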
HCC1187 = assay type: functional, cell-based, Homo sapiens; details: Homo sapiens, HCC1187;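 also: growth inhibition of HCC1187 cells, read out with a cell viability assay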
HOP-62 = assay type: functional, cell-based, Homo sapiens; details: Homo sapiens, HOP-62;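 also: cell growth inhibition determined with a viability assay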
HT = assay type: functional, cell-based, Homo sapiens; details: Homo sapiens, HT
HT-144 = assay type: functional, cell-based, Homo sapiens; details: Homo sapiens, HT-144
IST-MEL1 = assay type: functional, cell-based, Homo sapiens; details: Homo sapiens, IST-MEL1;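 also: growth inhibition of the cell line, read out with a cell viability assay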
J-RT3-T3-5 = assay type: functional, cell-based, Homo sapiens; details: Homo sapiens, J-RT3-T3-5;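 also: cell viability assay measuring growth inhibition of human J-RT3-T3-5 cells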
K562 = assay type: functional, cell-based, Homo sapiens; details: Homo sapiens, K562
L-363 = assay type: functional, cell-based, Homo sapiens; details: Homo sapiens, L-363
LAMA-84 = assay type: functional, cell-based, Homo sapiens; details: Homo sapiens, LAMA-84;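 also: growth inhibition of LAMA-84 cells, read out with a cell viability assay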
LB2241-RCC = assay type: functional, cell-based, Homo sapiens; details: Homo sapiens, LB2241-RCC;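 also: cell viability assay measuring how strongly the cultured human renal carcinoma line is prevented from growing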
LB2518-MEL = assay type: functional, cell-based; details: Homo sapiens;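 also: growth inhibition of human LB2518-MEL cells, measured with a cell viability assay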
LB771-HNC = assay type: functional, cell-based; details: Homo sapiens;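 also: growth inhibition of LB771-HNC human cells, read out with a cell viability assay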
LS-123 = assay type: functional, cell-based, Homo sapiens; details: Homo sapiens, LS-123
LU-139 = assay type: functional, cell-based, Homo sapiens; details: Homo sapiens, LU-139
MMAC-SF = assay type: functional, cell-based; details: Homo sapiens;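 also: growth inhibition of human MMAC-SF cells, read out with a cell viability assay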
MOLT-4 = assay type: functional, cell-based, Homo sapiens; details: Homo sapiens, MOLT-4;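 also: growth inhibition of MOLT-4 cells, determined with a cell viability readout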
MZ1-PC = assay type: functional, cell-based, Homo sapiens; details: Homo sapiens, MZ1-PC;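 also: cell viability assay measuring growth inhibition of human MZ1-PC cells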
NCI-H1299 = assay type: functional, cell-based; details: Homo sapiens;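 also: growth inhibition of human NCI-H1299 cells, read out by a cell viability assay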
NCI-H2126 = assay type: functional, cell-based, Homo sapiens; details: Homo sapiens, NCI-H2126;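 also: growth inhibition of the cancer cell line, determined with a cell viability readout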
OCI-AML2 = assay type: functional, cell-based, Homo sapiens; details: Homo sapiens, OCI-AML2;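 also: growth inhibition of OCI-AML2 cells, read out with a cell viability assay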
OCUB-M = assay type: functional, cell-based; details: Homo sapiens;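 also: growth inhibition of the cancer cell line, read out through a cell viability assay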
OMC-1 = assay type: functional, cell-based, Homo sapiens; details: Homo sapiens, OMC-1;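 also: growth inhibition of the OMC-1 cell line, measured by a cell viability assay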
RH-1 = assay type: functional, cell-based, Homo sapiens; details: Homo sapiens, RH-1;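 also: growth inhibition of human RH-1 cells, read out with a cell viability assay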
RKO = assay type: functional, cell-based, Homo sapiens; details: Homo sapiens, RKO;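 also: growth inhibition of human RKO cells, read out with a cell viability assay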
RPMI-8866 = assay type: functional, cell-based, Homo sapiens; details: Homo sapiens, RPMI-8866
SCC-15 = assay type: functional, cell-based, Homo sapiens; details: Homo sapiens, SCC-15;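 also: growth inhibition of SCC-15 cells, read out with a cell viability assay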
SF-126 = assay type: functional, cell-based, Homo sapiens; details: Homo sapiens, SF-126;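 also: growth inhibition of human SF126 cells, read out with a cell viability assay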
SHP77 = assay type: functional, cell-based, Homo sapiens, SHP-77; details: Homo sapiens, SHP77;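 also: growth inhibition of human SHP-77 cells measured by a cell viability assay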
SK-LMS-1 = assay type: functional, cell-based, Homo sapiens; details: Homo sapiens, SK-LMS-1;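 also: growth inhibition of human SK-LMS-1 cells, read out with a cell viability assay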
SK-MEL-2 = assay type: functional, cell-based, Homo sapiens; details: Homo sapiens, SK-MEL-2;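 also: growth inhibition of human SK-MEL-2 cells measured with a cell viability assay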
SK-PN-DW = assay type: functional, cell-based, Homo sapiens; details: Homo sapiens, SK-PN-DW;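 also: growth inhibition measured with a viability assay on these cells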
SW684 = assay type: functional, cell-based, Homo sapiens; details: Homo sapiens, SW684; read-out: IC50;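 also: growth inhibition of human SW684 cells, measured by a cell viability assay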
SW 962 = assay type: functional, cell-based, Homo sapiens; details: Homo sapiens, SW 962;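 also: growth inhibition of human SW962 cells, read out by a cell viability assay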
TE-1 = assay type: functional, cell-based, Homo sapiens; details: Homo sapiens, TE-1;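 also: growth inhibition of the human TE-1 cell line, read out with a cell viability assay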
697 = assay type: functional, cell-based, Homo sapiens; details: Homo sapiens
A3-KAW = assay type: functional, cell-based, Homo sapiens; details: Homo sapiens, A3-KAW;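 also: growth inhibition of human A3-KAW cells, read out with a cell viability assay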
A704 = assay type: functional, cell-based; details: Homo sapiens;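 also: growth inhibition of human A704 cells, read out with a cell viability assay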
BT-474 = assay type: functional, cell-based, Homo sapiens; details: Homo sapiens, BT-474
TK-10 = assay type: functional, cell-based, Homo sapiens; details: Homo sapiens, TK-10;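 also: growth inhibition of TK-10 cells, read out in a cell viability assay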
U-266 = assay type: functional, cell-based, Homo sapiens; details: Homo sapiens, U-266
no-10 = assay type: functional, cell-based, Homo sapiens; details: Homo sapiens;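 also: growth inhibition of no-10 cells, read out with a cell viability assay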
CAS-1 = assay type: functional, cell-based, Homo sapiens; details: Homo sapiens, CAS-1;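 also: growth inhibition of CAS-1 cells, measured with a cell viability assay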
COLO-684 = assay type: functional, cell-based, Homo sapiens; details: Homo sapiens, COLO-684
SH-4 = assay type: functional, cell-based; details: Homo sapiens;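 also: growth inhibition of SH-4 cells, read out with a cell viability assay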

Structure (SMILES): Cc1ccc(C(=O)Nc2ccc(CN3CCN(C)CC3)c(C(F)(F)F)c2)cc1C#Cc1cnc2cccnn12 [PONATINIB]
- pIC50 (DEL): < 6.29
- pIC50 (DJM-1): < 6.29
- pIC50 (ES1): < 6.29
- pIC50 (ES4): < 6.29
- pIC50 (EOL1): > 8.70
- pIC50 (GI-1): < 6.29
- pIC50 (HCC1187): < 6.29
- pIC50 (HOP-62): 6.44
- pIC50 (HT): < 6.29
- pIC50 (HT-144): 6.50
- pIC50 (IST-MEL1): < 6.29
- pIC50 (J-RT3-T3-5): < 6.29
- pIC50 (K562): < 6.29
- pIC50 (L-363): < 6.29
- pIC50 (LAMA-84): > 8.70
- pIC50 (LB2241-RCC): < 6.29
- pIC50 (LB2518-MEL): < 6.29
- pIC50 (LB771-HNC): < 6.29
- pIC50 (LS-123): < 6.29
- pIC50 (LU-139): < 6.29
- pIC50 (MMAC-SF): < 6.29
- pIC50 (MOLT-4): < 6.29
- pIC50 (MZ1-PC): 6.95
- pIC50 (NCI-H1299): < 6.29
- pIC50 (NCI-H2126): < 6.29
- pIC50 (OCI-AML2): < 6.29
- pIC50 (OCUB-M): < 6.29
- pIC50 (OMC-1): < 6.29
- pIC50 (RH-1): < 6.29
- pIC50 (RKO): < 6.29
- pIC50 (RPMI-8866): < 6.29
- pIC50 (SCC-15): < 6.29
- pIC50 (SF-126): 6.77
- pIC50 (SHP77): < 6.29
- pIC50 (SK-LMS-1): < 6.29
- pIC50 (SK-MEL-2): < 6.29
- pIC50 (SK-PN-DW): < 6.29
- pIC50 (SW684): < 6.29
- pIC50 (SW 962): < 6.29
- pIC50 (TE-1): < 6.29
- pIC50 697: 6.72
- pIC50 (A3-KAW): < 6.29
- pIC50 (A704): < 6.29
- pIC50 (BT-474): < 6.29
- pIC50 (TK-10): < 6.29
- pIC50 (U-266): < 6.29
- pIC50 (no-10): < 6.29
- pIC50 (CAS-1): 6.55
- pIC50 (COLO-684): < 6.29

Structure (SMILES): CC(C)C[C@H](NC(=O)[C@H](Cc1ccccc1)NC(=O)c1cnccn1)B(O)O [BORTEZOMIB]
- pIC50 (DEL): < 7.70
- pIC50 (DJM-1): 8.44
- pIC50 (ES1): 9.37
- pIC50 (ES4): 8.67
- pIC50 (EOL1): 7.74
- pIC50 (GI-1): 9.12
- pIC50 (HCC1187): 8.45
- pIC50 (HOP-62): 9.19
- pIC50 (HT): 8.52
- pIC50 (HT-144): 9.24
- pIC50 (IST-MEL1): 9.04
- pIC50 (J-RT3-T3-5): < 7.70
- pIC50 (K562): 8.39
- pIC50 (L-363): 8.11
- pIC50 (LAMA-84): 8.46
- pIC50 (LB2241-RCC): 9.09
- pIC50 (LB2518-MEL): 9.37
- pIC50 (LB771-HNC): 9.32
- pIC50 (LS-123): 8.69
- pIC50 (LU-139): 8.29
- pIC50 (MMAC-SF): 9.67
- pIC50 (MOLT-4): 8.67
- pIC50 (MZ1-PC): 8.45
- pIC50 (NCI-H1299): < 7.70
- pIC50 (NCI-H2126): 8.75
- pIC50 (OCI-AML2): < 7.70
- pIC50 (OCUB-M): 9.35
- pIC50 (OMC-1): 8.38
- pIC50 (RH-1): < 7.70
- pIC50 (RKO): 8.97
- pIC50 (RPMI-8866): < 7.70
- pIC50 (SCC-15): < 7.70
- pIC50 (SF-126): 9.15
- pIC50 (SH-4): 9.76
- pIC50 (SHP77): < 7.70
- pIC50 (SK-LMS-1): 9.07
- pIC50 (SK-MEL-2): < 7.70
- pIC50 (SK-PN-DW): 8.50
- pIC50 (SW684): 9.09
- pIC50 (SW 962): 8.28
- pIC50 (TE-1): 8.99
- pIC50 697: 8.70
- pIC50 (A3-KAW): 8.89
- pIC50 (BT-474): < 7.70
- pIC50 (TK-10): 9.17
- pIC50 (U-266): 8.75
- pIC50 (no-10): 9.68
- pIC50 (CAS-1): 8.86
- pIC50 (COLO-684): 8.44

Structure (SMILES): NC(=O)c1ccc(N(C(N)=O)c2c(F)cccc2F)nc1-c1ccc(F)cc1F [VX-702]
- pIC50 (DEL): < 5.70
- pIC50 (DJM-1): < 5.70
- pIC50 (ES1): < 5.70
- pIC50 (ES4): < 5.70
- pIC50 (GAK): < 5.70
- pIC50 (GI-1): < 5.70
- pIC50 (HCC1187): < 5.70
- pIC50 (HOP-62): 7.81
- pIC50 (HT): < 5.70
- pIC50 (HT-144): < 5.70
- pIC50 (IST-MEL1): < 5.70
- pIC50 (J-RT3-T3-5): < 5.70
- pIC50 (K562): < 5.70
- pIC50 (L-363): < 5.70
- pIC50 (LAMA-84): < 5.70
- pIC50 (LB2241-RCC): < 5.70
- pIC50 (LB2518-MEL): < 5.70
- pIC50 (LB771-HNC): < 5.70
- pIC50 (LS-123): < 5.70
- pIC50 (LU-139): 6.71
- pIC50 (MMAC-SF): < 5.70
- pIC50 (MOLT-4): < 5.70
- pIC50 (MZ1-PC): < 5.70
- pIC50 (NCI-H1299): < 5.70
- pIC50 (NCI-H2126): < 5.70
- pIC50 (OCI-AML2): < 5.70
- pIC50 (OCUB-M): < 5.70
- pIC50 (OMC-1): < 5.70
- pIC50 (RH-1): < 5.70
- pIC50 (RKO): < 5.70
- pIC50 (RPMI-8866): < 5.70
- pIC50 (SCC-15): < 5.70
- pIC50 (SF-126): < 5.70
- pIC50 (SH-4): < 5.70
- pIC50 (SHP77): < 5.70
- pIC50 (SK-LMS-1): < 5.70
- pIC50 (SK-MEL-2): < 5.70
- pIC50 (SK-PN-DW): < 5.70
- pIC50 (SW684): < 5.70
- pIC50 (SW 962): < 5.70
- pIC50 (TE-1): < 5.70
- pIC50 697: < 5.70
- pIC50 (A3-KAW): < 5.70
- pIC50 (A704): < 5.70
- pIC50 (BT-474): < 5.70
- pIC50 (TK-10): < 5.70
- pIC50 (U-266): < 5.70
- pIC50 (no-10): < 5.70
- pIC50 (CAS-1): < 5.70
- pIC50 (COLO-684): < 5.70
